Entries after “also recorded” stand apart in the source; their conditions may differ.
Tested on: body temperature rhythm in humans (shift work)
Experiment: Example 10: Subject F, simulated rapid rotating shift work roster, double blind melatonin vs placebo, rectal temperature
Format: in vivo, human
Conditions: for sleep induction: from diary descriptions
Experimental: The subject was a […] psychology lecturer who had never taken Melatonin before. In order to evaluate the effects of Melatonin on adaptation to rotating shift work conditions the subject undertook three, eight hour phase advances in their sleep-wake/work-rest schedule at six day intervals. Melatonin was administered under double blind conditions on the first phase advance and placebo taken on the second. […] This entrainment was not a secondary consequence of sleep induction. The data can be taken as evidence for Melatonin as an effective chronobiotic for adaptation to shiftwork.
The experiment was designed to incorporate the salient features of a rapidly rotating shift-work schedule combined with aspects of lighting changes encountered on destination arrival after intercontinental jet flight. […] The experimental protocol differed from that normally found in shift work in that the subject had to spend the dark period in bed in an isolation unit irrespective of whether sleepiness was felt or not; whereas, no sleep was allowed during the light period no matter how tired the subject felt. During the light period the subject was free to leave the isolation unit to engage in work or leisure related activities.
The experiment was carried out over the long vacation, the isolated unit being situated half below ground under one of the residential colleges on La Trobe University Campus. The area was, therefore, fairly well buffered against external noise and a ventilation exhaust fan was continuously running, which aided extraneous noise reduction. Windows located high up on the walls of the kitchen alcove and shower/toilet rooms were blacked out. The main sleeping-living room was illuminated by two fluorescent tubes (40 watt) while the alcove and bathroom areas had one, 40 watt, fluorescent light in each. All lights were controlled by a single time clock set to give an LD 16:8 cycle, lights on at 0730 hours during baseline. A bedside lamp was used for reading during the light period. No lighting was allowed during the dark period for any reason. Therefore, events such as quenching of thirst and urination had to take place in total darkness. Temperature of the isolation area was maintained within the range 20°-22° C. throughout the experiment. During stage A and pre-baseline breakfast was ingested between 0800 and 0900, lunch between 1300 and 1400, and dinner between 1800 and 2000. During stages B and C meals and intermeal intervals were scheduled for equivalent times (relative to lights on) to those during stage A.
During stages B and C the subject was instructed to take one capsule just prior to lights off. If still awake one hour later, the subject was to take a second capsule. Similar instructions applied to the second and third hours after lights-off but no capsule was to be taken during the last four hours of darkness i.e. maximum number of capsules to be taken was four. Capsules were refrigerated and had to be taken in complete darkness once lights were off. A double blind procedure was employed with stage B being drug (Melatonin, Sigma, 5mg/capsule) and stage C being placebo (sucrose filled capsule). No capsules were taken on the final dark period at the end of each stage i.e. days 10 and 16.
Rectal temperature was sampled every 12 minutes using a Vitalog PMS 8 portable microcomputer. A diary of life events was kept. These included details of sleep, work, leisure, meals, beverages, urination and defecation. […]

In the case of `COc1ccc2[nH]cc(CCNC(C)=O)c2c1` [melatonin, 5-methoxy-N-acetyltryptamine], the “time to fall asleep after lights out (diary, Table 2)” value (Subject F, 22.1.84, first complete day after first phase shift, capsule taken 1515) was “approx. 30 minutes”, the “time by which temperature rhythm was re-established and in phase with the new light-dark cycle” value (Subject F, first 8 hour advance of darkness) was “by the third complete day after the phase shift (day 8)” and the “entrainment of body (rectal) temperature rhythm” value (Subject F, first 8 hour phase advance, 5 mg/capsule before lights off, double blind, contrast to placebo) was “good and accelerated entrainment of the body temperature rhythm; also recorded: phase shifted the rectal temperature rhythm”. For the same compound, the sleep induction (Subject F) was “did not have the same potent sleep induction as reported by other subjects after intercontinental flight” and the sleep induction (Subject F, listed as Melatonin) was “aided sleep induction”.

Source: patent publication US4665086A, “Method for minimizing disturbances in circadian rhythms of bodily performance and function” (priority 1983, dated 1987)
